According to the NIST ThermoML archive (doi:10.1016/j.jct.2018.12.016):
± gives the expanded uncertainty stated by the source.

Conditions: 298.15 K, Liquid; for mass density: 101.33 kPa, Pycnometric method; for vapor or sublimation pressure: Manometric method

| Structure (SMILES) | mass density [kg/m3] | vapor or sublimation pressure [kPa] |
| --- | --- | --- |
| CCCCOC(=O)c1ccccc1C(=O)OCCCC [dibutyl phthalate] | 1042 ± 2 | – |
| [Hg] [mercury] | 13530 ± 30 | – |

Second part, the compound after the results:

| mass density [kg/m3] | vapor or sublimation pressure [kPa] | Structure (SMILES) |
| --- | --- | --- |
| 1063 ± 2 | 7.256 ± 0.12 | COC(=O)OC [dimethyl carbonate] |
| 776 ± 2 | 11.81 ± 0.16 | CC#N [acetonitrile] |
| 1096 ± 3 | 0.08 ± 0.078 | C[S+](C)[O-] [dimethyl sulfoxide] |
